# Columns and labels:
# [1] = system: SARS CoV-2 (USA_WA1/2020); experiment: microbe, parasite or virus in culture; assay type: cell-based; settings: Severe acute respiratory syndrome coronavirus 2, Vero C1008; SARS-CoV-2 CPE assay, reference compounds
# [2] = system: hCoV-229E; experiment: hCoV-229E CPE assay in MRC5 cells; assay type: cell-based
# Experimental: The method of this CPE assay is as follows: In 96-well plates, MRC5 cells were seeded at an appropriate density and cultured at 37° C. and 5% CO2 overnight. […] Then medium in each well was replenished with medium containing serially diluted samples and virus. […] Cytotoxicity of the compounds was assessed under the same conditions, but without virus infection, in parallel. Cell viability was measured by CellTiter Glo following the manufacturer's manual. IC50 and CC50 values were calculated with GraphPad Prism software.
# [3] = in vitro; settings: human
compound,measurement,setting,value
CCC(CC)COC(=O)[C@H](C)N[P@](=O)(OC[C@H]1O[C@@](C#N)(c2ccc3c(N)ncnn23)[C@H](O)[C@@H]1O)Oc1ccccc1 [Remdesivir],IC50,[1],3.9 µM
same,Selectivity Index (CC50/IC50) (Based upon nM),[2]; HCoV-229E CPE assay,1508.76
same,IC50,"[2]; Human coronavirus 229E, MRC5, 72 h, read-out: Antiviral IC50",0.0177 µM
same,CC50,[3],26.7 µM

# From US20240018207A1, “INTERFERON TAU FC-FUSION PROTEINS AND METHODS FOR TREATING CORONAVIRUS INFECTIONS” (Southlake Pharmaceuticals, Inc., priority 2020, published 2024)
